Measured values from patent publication US20230232837A1, “NOVEL FORMULATIONS FOR INCREASING THE GERMINATION RATE OF FUNGAL SPORES” (priority 2020, published 2023).

Tests used:
[1] = test system: Trichoderma atroviride strain T1; assay: Germination rate after air-drying with protectants, strain T1; assay type: cell-based; conditions: after air-drying at room temperature overnight; material:spore 1:1, lecithin 1:10
Protocol: (§1) The spores of Trichoderma strains T1 and B35 were prepared by Solid State Fermentation (SSF) and harvested, then centrifuged to form a spore paste. T1 is used here as an abbreviation for Trichoderma atroviride strain T1 with a culture collection No. I123-7 (French collection), while B35 is used here as an abbreviation for Trichoderma asperellum strain B35, deposited in the German Culture collection under the No. DSM33245.
(§2) For the air-drying experiments (explained further below), in order to get a protectant-to-spore mass ratio of 1:1 (except for lecithin), 12 g of the spore paste was mixed with 3 g of the protectant in order to get a total of 15 g. The spore concentration in the paste is about 25%, which makes then 3 g of spore in contact with 3 g of protectant. The mixture of protectants and paste were mixed for 5 min and 3400 rpm using an Ultra-Turrax equipment (IKA T25). In case of the test for lecithin, 1.5 g of a 20% lecithin solution was added to 13.5 g of spore paste, then mixed according to the afore-mentioned procedure (5 min, 3400 rpm). After mixing, the mixture was poured into a tray and dried at room temperature overnight.
(§3) Germination rates were measured according to the following protocol: The sample with the spores is dispersed in sterile tap water to get a homogenous spore solution. Depending on the initial spore concentration, the sample may need to be diluted up to 1E+07 spores/mL. This dilution then is spread on agar plates (often, 100 μl of dilution spread on a Potato Dextrose Agar plate) with a sterile Drigalski spatula. Depending on the strain type, the plates are incubated at a certain temperature (for example 20° C. for Trichoderma used here) for some time (here 19-24 hours is used) to allow time for germination and forming hyphae. Subsequently, the spores on the plates are analyzed under the microscope in 8 to 10 randomly chosen areas. At least 200 germinated and non-germinated spores are counted. The viability (%) is calculated by 100 times the number of germinated spores to the total spores counted.
(§4) A test was conducted to compare lecithin against other known microbial stabilizers and protectant materials. These materials include different sugars, proteins, skim milk powder, and others. Initially, an air-drying technique in room temperature was used.
(§5) After the spores were air dried with different protectants at room temperature overnight, the germination rate and total dry matter content (DMC, which is a way of expressing total moisture content) of the samples were analyzed.

[2] = test system: Trichoderma asperellum strain B35; assay: Germination rate after air-drying with protectants, strain B35; assay type: cell-based; conditions: after air-drying at room temperature overnight; material:spore 1:1, lecithin 1:10
Protocol: as §1, §2, §3, §4, §5

[3] = Dry matter content / residual moisture by heating balance; assay type: physicochemical; conditions: dry matter content after air-drying; for DMC (%) B35: strain B35; for DMC (%) T1: strain T1
Protocol: For all experiments conducted, dry matter content (as related to total moisture content) was measured by a heating balance apparatus (Sartorius MA 160).
as §5

| Compound | Germination rate (%) T1 [1] | Germination rate (%) B35 [2] | DMC (%) B35 [3] [%] | DMC (%) T1 [3] [%] |
| --- | --- | --- | --- | --- |
| OC[C@@H](O)[C@H](O)[C@H](O)[C@@H](O)CO [Ducitol/Galactitol] | not soluble | not soluble | – | – |
| OC[C@@H](O)[C@@H](O)[C@H](O)[C@H](O)CO [Mannitol] | 69.95% | 51.40% | 94.88 | 97.01 |
| O[C@H]1[C@H](O)[C@@H](O)[C@H](O)[C@@H](O)[C@H]1O [Myo-Inositol] | 65.03% | 59.05% | 95.59 | 96.6 |
| OC[C@@H](O)[C@@H](O)[C@H](O)[C@@H](O)CO [Sorbitol/Glucitol] | – | 13.00% | 93.99 | – |
| OC[C@H]1O[C@@](CO)(O[C@H]2O[C@H](CO)[C@@H](O)[C@H](O)[C@H]2O)[C@@H](O)[C@@H]1O [Sucrose] | – | 36.45% | 91.59 | – |
| OC[C@H]1O[C@H](O[C@H]2O[C@H](CO)[C@@H](O)[C@H](O)[C@H]2O)[C@H](O)[C@@H](O)[C@@H]1O [Trehalose] | 68.75% | 43.18% | 91.84 | 90.35 |
| Chitosan | not soluble | not soluble | – | – |
| Maltodextrin | 54.55% | 20.38% | 92.49 | 94.46 |
